Earlier results, collected in patent US20240390332A1, “Combination treatment and/or prevention of renal diseases and/or hypertension in non-human mammals comprising one or more SGLT-2 inhibitors and telmisartan” (BOEHRINGER INGELHEIM VETMEDICA GMBH, priority 2023, published 2024).

System: human patients suffering from diabetes mellitus type II
Conditions: baseline to week 12, empagliflozin 10 mg and 25 mg groups vs placebo

**Q.** Which “mean 24-hour systolic BP, placebo-subtracted mean difference” value does the source give for `OC[C@H]1O[C@@H](c2ccc(Cl)c(Cc3ccc(O[C@H]4CCOC4)cc3)c2)[C@H](O)[C@@H](O)[C@@H]1O` [empagliflozin, Empagliflozin] here?
**A.** The value was “up to −4.16 mmHg”.
